From patent US20120088753A1, “PYRROLOPYRIMIDINES AND USED AS KINASE INHIBITORS” (MEDICAL RESEARCH COUNCIL TECHNOLOGY, priority 2009, published 2012) come the findings set out here.

A value given as a limit tells only on which side of the number the result lay.

The assay addresses T1, TBK1 (Homo sapiens, UniProt Q9UHD2).
T1 construct: All protein kinases were of human origin and encoded full length proteins, unless indicated otherwise; His6; made in house; host or cells: insect Sf21 cells
T1 sequence (Q9UHD2 1-729): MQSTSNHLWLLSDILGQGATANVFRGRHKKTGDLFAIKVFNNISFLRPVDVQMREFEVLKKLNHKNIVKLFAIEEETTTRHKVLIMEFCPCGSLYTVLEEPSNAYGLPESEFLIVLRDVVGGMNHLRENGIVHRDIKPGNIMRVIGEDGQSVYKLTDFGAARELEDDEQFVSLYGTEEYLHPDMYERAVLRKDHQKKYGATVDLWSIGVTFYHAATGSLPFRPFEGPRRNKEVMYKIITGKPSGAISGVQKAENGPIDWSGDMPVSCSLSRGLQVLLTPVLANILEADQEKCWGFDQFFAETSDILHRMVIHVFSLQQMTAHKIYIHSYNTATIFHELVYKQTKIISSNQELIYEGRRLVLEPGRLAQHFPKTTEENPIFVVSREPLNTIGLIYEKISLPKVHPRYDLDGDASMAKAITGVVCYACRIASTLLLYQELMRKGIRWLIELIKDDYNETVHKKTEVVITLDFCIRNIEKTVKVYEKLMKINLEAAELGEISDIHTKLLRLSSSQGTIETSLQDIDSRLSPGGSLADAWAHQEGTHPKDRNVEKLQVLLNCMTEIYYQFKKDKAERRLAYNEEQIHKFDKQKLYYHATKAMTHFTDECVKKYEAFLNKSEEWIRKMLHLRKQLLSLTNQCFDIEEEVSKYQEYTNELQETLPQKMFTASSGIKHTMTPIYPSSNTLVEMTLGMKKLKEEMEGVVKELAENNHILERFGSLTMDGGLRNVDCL
Kind of assay: TBK1 protein kinase assay ([γ-33P]ATP filter-plate, IC50 from 10 concentrations). The settings on record: 50 μM ATP, peptide substrate 300 μM, 30 min, 21° C.; read-out: Potency score (TBK1 IC50). Format: biochemical. The source says: All protein kinases were of human origin and encoded full length proteins, unless indicated otherwise. They were either expressed as glutathione S-transferase (GST) fusion proteins in Escherichia Coli or as hexahistidine (His6)-tagged proteins in insect Sf21 cells. GST fusion proteins were purified by affinity chromatography on glutathione-Sepharose, and His6-tagged proteins on nickel/nitriloacetate-agarose. The procedures for expressing some of the protein kinases used herein have been detailed previously.^8,9 The following sections outline the DNA vectors synthesised and the procedures used to express and purifying protein kinases that have not been reported previously.
The following kinases were expressed in Sf21 cells: Aurora B and Aurora C, extra-cellular signal-regulated kinase 8 (ERK8), microtubule affinity regulating kinase 3 (MARK3), protein kinase Bα[118-480][S473D], protein kinase Bβ (PKBβ[120-481][S474D], 3-phosphoinositide-dependent protein kinase-1 [52-556] (PDK1[52-556], IKKε, TBK1,
All assays (25.5 μl) were carried out at room temperature (21° C.) and were linear with respect to time and enzyme concentration under the conditions used. Assays were performed for 30 min using Multidrop Micro reagent dispensers (Thermo Electron Corporation, Waltham, Mass. 02454, USA) in a 96-well format. The concentration of magnesium acetate in the assays was 10 mM and the [γ-33P] ATP (800 cpm/pmol) was used at 5, 20 or 50 μM as indicated, in order to be at or below the Km for ATP for each enzyme. Protein kinases assayed at 5 μM ATP were: ERK1, ERK8, PKBα, MARK3, Aurora C. Protein kinases assayed at 20 μM ATP were: JNK1, PDK1, CHK1, CHK2, CDK2 and Aurora B. Protein kinases assayed at 50 μM ATP were: MNK2, IKKepsilon and TBK1.
The assays were initiated with MgATP, stopped by addition of 5 μl of 0.5 M orthophosphoric acid and spotted on to P81 filterplates using a unifilter harvester (PerkinElmer, Boston, Mass. 02118, USA). The IC50 values of inhibitors were determined after carrying out assays at 10 different concentrations of each compound.
ERK1 and ERK8 were both assayed against myelin basic protein (MBP, 0.33 mg/ml). MARK3 was assayed against the peptide […] (300 μM), MNK2 against the eIF4E protein (0.5 mg/ml). PKBβ was assayed against the peptide GRPRTSSFAEGKK (30 μM). TBK1 were assayed against ([…]) (300 μM). The substrates used for other protein kinases were described previously.^8,9
Unless stated otherwise, enzymes were diluted in 50 mM Tris/HCl pH 7.5, 0.1 mM EGTA, 1 mg/ml BSA, 0.1% (v/v) 2-mercaptoethanol and assayed in 50 mM Tris/HCl pH 7.5, 0.1 mM EGTA, 0.1% (v/v) 2-mercaptoethanol.
For `CN1CCc2ccc(Nc3ncc4ccn(CCCNC(=O)C5CCC5)c4n3)cc2C1` [Example 53, Cyclobutanecarboxylic acid {3-[2-(2-methyl-1,2,3,4-tetrahydro-isoquinolin-7-ylamino)-pyrrolo[2,3-d]pyrimidin-7-yl]-propyl}-amide], the IC50 is below 100 nM. For `O=C(NCCCn1ccc2cnc(Nc3ccc(C(=O)N4CCOCC4)cc3)nc21)C1CCC1` [Example 15, Cyclobutanecarboxylic acid (3-{2-[4-(morpholine-4-carbonyl)-phenylamino]-pyrrolo[2,3-d]pyrimidin-7-yl}-propyl)-amide], the half-inhibitory concentration (IC50) was below 100 nM. With `CC(=O)Nc1cccc(Nc2ncc3ccn(CCCNC(=O)C4CCC4)c3n2)c1` [Example 28, Cyclobutanecarboxylic acid {3-[2-(3-acetylamino-phenylamino)-pyrrolo[2,3-d]pyrimidin-7-yl]-propyl}-amide] the figure was below 100 nM; with `O=C(NCCCn1ccc2cnc(Nc3cccc(F)c3)nc21)C1CCC1` [Example 27, Cyclobutanecarboxylic acid {3-[2-(3-fluoro-phenylamino)-pyrrolo[2,3-d]pyrimidin-7-yl]-propyl}-amide], below 100 nM. For the compound `O=C(NCCCn1ccc2cnc(Nc3cccc(CN4CCCC4)c3)nc21)C1CCC1` [Example 6, Cyclobutanecarboxylic acid {3-[2-(3-pyrrolidin-1-ylmethyl-phenylamino)-pyrrolo[2,3-d]pyrimidin-7-yl]-propyl}-amide], the IC50 was below 100 nM. For `O=C(NCCCn1ccc2cnc(Nc3ccc(N4CCOCC4)nc3)nc21)C1CCCC1` [Example 16, Cyclopentanecarboxylic acid {3-[2-(6-morpholin-4-yl-pyridin-3-ylamino)-pyrrolo[2,3-d]pyrimidin-7-yl]-propyl}-amide], the half-inhibitory concentration (IC50) is below 100 nM. Turning to `Cn1cc(Nc2ncc3ccn(CCCNC(=O)C4CCC4)c3n2)cn1` [Example 8, Cyclobutanecarboxylic acid {3-[2-(1-methyl-1H-pyrazol-4-ylamino)-pyrrolo[2,3-d]pyrimidin-7-yl]-propyl}-amide], the half-inhibitory concentration (IC50) was below 100 nM. With `CN1CCN(c2ccc(Nc3ncc4ccn(CCCNC(=O)C5CCC5)c4n3)cn2)CC1` [Example 31, Cyclobutanecarboxylic acid (3-{2-[6-(4-methyl-piperazin-1-yl)-pyridin-3-ylamino]-pyrrolo[2,3-d]pyrimidin-7-yl}-propyl)-amide] the figure was 100 to 1000 nM. Consider `O=C(NCCCn1ccc2cnc(Nc3ccc(N4CCOCC4)cc3)nc21)C1CCC1` [Example 3, Cyclobutanecarboxylic acid {3-[2-(4-morpholin-4-yl-phenylamino)-pyrrolo[2,3-d]pyrimidin-7-yl]-propyl}-amide], for which the IC50 was below 100 nM.

For the compound `CN1CCN(c2ccc(Nc3ncc4ccn(CCCNC(=O)C5CCC5)c4n3)cc2)CC1` [Example 4, Cyclobutanecarboxylic acid (3-{2-[4-(4-methyl-piperazin-1-yl)-phenylamino]-pyrrolo[2,3-d]pyrimidin-7-yl}-propyl)-amide], the half-maximal inhibitory concentration (IC50) is below 100 nM. As for `O=C(NCCCn1ccc2cnc(Nc3cccc(N4CCOCC4)c3)nc21)C1CCC1` [Example 48, Cyclobutanecarboxylic acid {3-[2-(3-morpholin-4-yl-phenylamino)-pyrrolo[2,3-d]pyrimidin-7-yl]-propyl}-amide], the IC50 is below 100 nM.

As to `COC1(c2ccc(Nc3ncc4ccn(CCCNC(=O)C5CCC5)c4n3)cc2)CCN(C)CC1` [Example 58, Cyclobutanecarboxylic acid (3-{2-[4-(4-methoxy-1-methyl-piperidin-4-yl)-phenylamino]-pyrrolo[2,3-d]pyrimidin-7-yl}-propyl)-amide], the IC50 was below 100 nM.

With `O=C(NCCCn1ccc2cnc(Nc3ccc(N4CCOCC4)nc3)nc21)c1cncs1` [Example 21, Thiazole-5-carboxylic acid {3-[2-(6-morpholin-4-yl-pyridin-3-ylamino)-pyrrolo[2,3-d]pyrimidin-7-yl]-propyl}-amide], the concentration for half-maximal inhibition (IC50) was in the range of 100 to 1000 nM.

Broadly, the IC50 is the concentration that gives 50% inhibition.
